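Following 48 hours of exposure in 96-well plates, responses at five concentrations were used to interpolate endpoints linearly. Abbreviation: GI50, concentration required for 50% inhibition of growth.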 Active and inactive are the calls of the source. No stated cut-off is given here; in the data, active = GI50 up to about 1.1 µM and inactive = higher.
How the values were obtained:
Assay in all cases: inhibition of tumour cell growth, NCI panel, 48 h
786-0 = system: 786-0
A498 = system: A498
A549 = system: A549
ACHN = system: ACHN
BT-549 = system: BT-549
COLO 205 = system: COLO 205
EKVX = system: EKVX
HCC 2998 = system: HCC 2998
HCT-116 = system: HCT-116
HCT-15 = system: HCT-15
HL-60 = system: HL-60
HOP-62 = system: HOP-62
HOP-92 = system: HOP-92
HT-29 = system: HT-29
Hs-578T = system: Hs-578T
IGROV-1 = system: IGROV-1
K562 = system: K562
KM12 = system: KM12
M14 = system: M14
MCF7 = system: MCF7
MDA-MB-231 = system: MDA-MB-231
MDA-N = system: MDA-N
MOLT-4 = system: MOLT-4
Malme-3M = system: Malme-3M
NCI-H226 = system: NCI-H226
NCI-H23 = system: NCI-H23
NCI-H460 = system: NCI-H460
OVCAR-5 = system: OVCAR-5
OVCAR-8 = system: OVCAR-8
PC-3 = system: PC-3
RPMI-8226 = system: RPMI-8226
RXF 393 = system: RXF 393
SK-MEL-28 = system: SK-MEL-28
SK-MEL-2 = system: SK-MEL-2
SK-MEL-5 = system: SK-MEL-5
SN12C = system: SN12C
SNB-19 = system: SNB-19
SNB-75 = system: SNB-75
SR = system: SR
SW-620 = system: SW-620
TK-10 = system: TK-10
U-251 = system: U-251
UACC-257 = system: UACC-257
UACC-62 = system: UACC-62
UO-31 = system: UO-31
CAKI-1 = system: CAKI-1
CCRF-CEM = system: CCRF-CEM
DU-145 = system: DU-145
LOX IMVI = system: LOX IMVI
MDA-MB-435 = system: MDA-MB-435
NCI-H522 = system: NCI-H522
NCI/ADR-RES = system: NCI/ADR-RES
OVCAR-3 = system: OVCAR-3
OVCAR-4 = system: OVCAR-4
SF-295 = system: SF-295
SF-539 = system: SF-539
SK-OV-3 = system: SK-OV-3
T47D = system: T47D

## CCOC(=O)C1(C)CCCc2sc(N)c(C#N)c21 (centres undefined)
786-0
  GI50: > 100 µM (inactive)
A498
  GI50: > 100 µM (inactive)
A549
  GI50: > 100 µM (inactive)
ACHN
  GI50: > 100 µM (inactive)
BT-549
  GI50: > 100 µM (inactive)
COLO 205
  GI50: > 100 µM (inactive)
EKVX
  GI50: > 100 µM (inactive)
HCC 2998
  GI50: > 100 µM (inactive)
HCT-116
  GI50: > 100 µM (inactive)
HCT-15
  GI50: > 100 µM
HL-60
  GI50: > 100 µM (inactive)
HOP-62
  GI50: > 100 µM (inactive)
HOP-92
  GI50: > 100 µM (inactive)
HT-29
  GI50: > 100 µM (inactive)
Hs-578T
  GI50: > 100 µM (inactive)
IGROV-1
  GI50: > 100 µM (inactive)
K562
  GI50: > 100 µM (inactive)
KM12
  GI50: > 100 µM (inactive)
M14
  GI50: > 100 µM (inactive)
MCF7
  GI50: > 100 µM (inactive)
MDA-MB-231
  GI50: > 100 µM (inactive)
MDA-N
  GI50: > 100 µM (inactive)
MOLT-4
  GI50: > 100 µM (inactive)
Malme-3M
  GI50: > 100 µM (inactive)
NCI-H226
  GI50: > 100 µM (inactive)
NCI-H23
  GI50: > 100 µM (inactive)
NCI-H460
  GI50: > 100 µM (inactive)
OVCAR-5
  GI50: > 100 µM (inactive)
OVCAR-8
  GI50: > 100 µM (inactive)
PC-3
  GI50: > 100 µM (inactive)
RPMI-8226
  GI50: > 100 µM (inactive)
RXF 393
  GI50: > 100 µM (inactive)
SK-MEL-28
  GI50: > 100 µM (inactive)
SK-MEL-2
  GI50: > 100 µM (inactive)
SK-MEL-5
  GI50: > 100 µM (inactive)
SN12C
  GI50: > 100 µM (inactive)
SNB-19
  GI50: > 100 µM (inactive)
SNB-75
  GI50: 69 µM (inactive)
SR
  GI50: > 100 µM (inactive)
SW-620
  GI50: > 100 µM (inactive)
TK-10
  GI50: > 100 µM (inactive)
U-251
  GI50: > 100 µM (inactive)
UACC-257
  GI50: > 100 µM (inactive)
UACC-62
  GI50: > 100 µM (inactive)
UO-31
  GI50: > 100 µM (inactive)

## COc1ccc(CNc2nc(NCc3ccc(OC)c(OC)c3)nc(NC3CCCCC3)n2)cc1
786-0
  GI50: 5.64 µM (inactive)
A549
  GI50: 5.46 µM (inactive)
ACHN
  GI50: 7.94 µM (inactive)
BT-549
  GI50: 4.57 µM (inactive)
CAKI-1
  GI50: 3.17 µM (inactive)
CCRF-CEM
  GI50: 3.66 µM (inactive)
COLO 205
  GI50: 2.34 µM (inactive)
DU-145
  GI50: 3.4 µM (inactive)
EKVX
  GI50: 10.4 µM (inactive)
HCT-116
  GI50: 2.69 µM (inactive)
HCT-15
  GI50: 0.731 µM
HL-60
  GI50: 2.77 µM (inactive)
HOP-92
  GI50: > 100 µM (inactive)
HT-29
  GI50: 2.88 µM (inactive)
Hs-578T
  GI50: 2.49 µM (inactive)
IGROV-1
  GI50: 4.49 µM (inactive)
K562
  GI50: 1.24 µM (inactive)
KM12
  GI50: 1.21 µM (inactive)
LOX IMVI
  GI50: 5.33 µM (inactive)
M14
  GI50: 4.61 µM (inactive)
MCF7
  GI50: 1.29 µM (inactive)
MDA-MB-231
  GI50: 5.13 µM (inactive)
MDA-MB-435
  GI50: 0.531 µM (active)
MOLT-4
  GI50: 5.22 µM (inactive)
Malme-3M
  GI50: 37.2 µM (inactive)
NCI-H226
  GI50: 6.55 µM (inactive)
NCI-H23
  GI50: 2.86 µM (inactive)
NCI-H460
  GI50: 2.8 µM (inactive)
NCI-H522
  GI50: 1.69 µM (inactive)
NCI/ADR-RES
  GI50: 2.55 µM (inactive)
OVCAR-3
  GI50: 5.38 µM (inactive)
OVCAR-4
  GI50: 9.06 µM (inactive)
OVCAR-5
  GI50: 4.88 µM (inactive)
OVCAR-8
  GI50: 7.41 µM (inactive)
PC-3
  GI50: 3.77 µM (inactive)
RPMI-8226
  GI50: 3.6 µM (inactive)
RXF 393
  GI50: 2.23 µM (inactive)
SF-295
  GI50: 2.04 µM (inactive)
SF-539
  GI50: 2.29 µM (inactive)
SK-MEL-28
  GI50: > 100 µM (inactive)
SK-MEL-2
  GI50: 4.26 µM (inactive)
SK-MEL-5
  GI50: 0.716 µM (active)
SK-OV-3
  GI50: > 100 µM (inactive)
SN12C
  GI50: 6.18 µM (inactive)
SNB-19
  GI50: > 100 µM (inactive)
SNB-75
  GI50: 3.38 µM (inactive)
SR
  GI50: 0.611 µM (active)
SW-620
  GI50: 2.89 µM (inactive)
T47D
  GI50: 4.48 µM (inactive)
TK-10
  GI50: 18.5 µM (inactive)
U-251
  GI50: 3.44 µM (inactive)
UACC-257
  GI50: > 100 µM (inactive)
UACC-62
  GI50: 2.3 µM (inactive)
UO-31
  GI50: 5.18 µM (inactive)
